The results in this text go back to patent US20240374626A1, “METHODS OF ENHANCING MILK PRODUCTION IN LACTATING MAMMALIAN SUBJECTS” (priority 2023, published 2024).

What all share (type): cell-based, mouse
Test [1] deals with HC11 cells. Kind of test: Milk production markers in differentiated HC11 (milk domes, Csn2 RT-qPCR, CSN2 WB, PLIN2 ICC). How it is done: (§1) The HC11 cell line was obtained from American Type Culture Collection (ATCC) and routinely checked for mycoplasma (Mycoplasma PCR kit, ABM, G238). Undifferentiated HC11 cells were cultured in growing medium (RPMI-1640; Thermo Fisher Scientific, 72400047), supplemented with 10% FBS, 5 μg/ml insulin (Millipore-Sigma, 16634), 10 ng/ml epidermal growth factor (EGF; Preprotech, AF-100-15) and 1× AntiAnti (Thermo Fisher Scientific, 15240112) at 37° C. with 5% CO2. Cells were grown to confluency and maintained in growing medium for 2 days, until they became competent. Competent HC11 cells were primed for differentiation by culturing them in priming medium [RPMI-1640 supplemented with 5 μg/ml insulin, 1 μM dexamethasone (Millipore-Sigma, D4902-1 G) and 1× Anti-Anti] for 24 h at 37° C. with 5% CO2. To induce differentiation, primed HC11 cells were cultured in DIP Medium [RPMI-1640, supplemented with 10% FBS, 5 μg/ml insulin, 1 μM dexamethasone, 1× anti-anti and 3 μg/ml Prolactin (NHPP, oPRL-21)] at 37° C. with 5% CO2.
(§2) […] Drugs were maintained through the differentiation process and added with every change of media.
Whole cell lysates were prepared using 1×NP40 lysis buffer (Thermo Fisher Scientific, FNN0021) supplemented with Pierce Protease and Phosphatase inhibitors (Thermo Fisher Scientific, A32959). Cells were washed with ice-cold PBS (GIBCO, 14190136) and lysed direct in buffer and kept at 4° C. rocking at 70 rpm for 30 min. Lysed cells were collected and centrifuged at 12,000 rpm at 4° C. for 15 min. Protein concentration was quantified using Qubit 4 fluorometer (Thermo Fisher, Q33238). Samples were resolved by SDS page and transferred to polyvinylidene difluoride (PVDF, Millipore-Sigma, IPVH00010) for 60 min at 250 mA. Immunoblots were blocked for 1 h at room temperature using either 5% non-fat milk or 5% BSA TBST. Primary antibodies [anti-GAPDH (SCBT, sc-365062), anti-Actin (SCBT, sc-47778), anti-Cyclin B1 (SCBT, sc-245), anti-Cyclin E1 (Millipore-Sigma, SAB4503516) and anti-CSN2 (ABclonal, A12749)] were incubated overnight at 4° C. in a rocker. HRP-conjugated secondary antibodies ([…]) were used for 1 h at room temperature. Immunoblots were developed using Clarity ECL (Bio-Rad), detected using a Bio-Rad ChemiDoc MP Image, and quantified using ImageJ.
HC11 cells were fixed using ice-cold MeOH for 10 min. After washing with 1×PBS, cells were incubated for 1 h at room temperature with primary antibodies [anti-γH2AX (SCBT, sc-517348), anti-pATR (Genetex, GTX128145), anti-PLIN2 (generously provided by Jim McManaman)] in a humid incubation chamber. After incubation, cells were washed three times using 1×PBS and incubated for 1 h at room temperature in darkness using corresponding Alexa Fluor AffiniPure secondary antibodies (Jackson ImmunoResearch) and Phalloidin-iFluor 488 Reagent (Abcam, ab176753) when indicated. Cells were washed three times using 1×PBS and incubated with Hoechst 33342 (AnaSpec, AS-83218) for 10 min. Cells were mounted using fluoromount-G (Southern Biotech, 0100-01) and visualized using Zeiss Axio Imager Microscope. Integrated density of PLIN2, nuclear γH2AX and nuclear pATR was quantify using ImageJ.
For RNA isolation from FACS purified populations, mammary gland cell suspensions were blocked using Mouse BD Fc Block™ (BD Biosciences) for 10 min. Cells were subsequently resuspended on 1×PBS at a density of 10^7 cells/ml and stained with the following antibodies for 30 min on ice: anti-CD24 PE (Stem Cell Technologies, 60099PE.1), anti-CD29 PE-Cy7 (BioLegend, 102222), anti-CD45-APC (BioLegend,105826), Ter119-APC (BD Biosciences, 561033), CD31-ACP (BD Biosciences, 551262). Propidium iodide at a final concentration of 0.5 μg/ml was used for the discrimination of dead cells. Stromal, basal and luminal mammary populations were sorted using a BD FACS Aria II Cell Sorter. […]
In general terms: Quantitative PCR measures a nucleic acid by following its amplification.

Test [2] has as its system HC11 cells. Kind of test: FACS DNA content analysis of HC11 cells during lactogenic differentiation. How it is done:
as §1, §2
For DNA content analysis of the mammary gland CK8^+ epithelial population, mammary gland cells suspension was obtained as described above. Cells were fixed in ice-cold 70% EtOH at a final concentration of 10^6 cells/ml. During fixation, cells were vigorously vortexed for 1 min to avoid the formation of cell aggregates. Cells were washed twice with washing buffer [1×PBS containing 5% FBS and 0.5% tween 20 (Fisher Chemical, BP337500)] and centrifuged at 2,000 rpm for 5 min at 4° C. Cell pellet was incubated for 1 h at room temperature with anti-CK8 (Developmental Studies Hybridoma Lab, TROMA-1), anti-GFP (Thermo Fisher, A01704) or corresponding rat (Thermo-Fisher, 10700) or rabbit (Thermo-Fisher, 10500C) IgG isotype controls. Cells were washed twice and incubated for 1 h at room temperature in darkness with FITC anti-Rat (Thermo Fisher, A24544) or FITC anti-Rabbit (Thermo Fisher, A16030) and APC anti-Rat (Jackson ImmunoResearch, 712-136-153). Cells were washed twice and resuspended in propidium iodide solution [1×PBS containing 25 μg/ml of propidium iodide (Thermo Fisher, P3566) and 100 μg/ml of RNAse (Thermo Fisher, 12091021)]. For DNA content analysis on HC11, cells were washed with 1×DPBS (GIBCO, 14190-250) and harvested using 0.05% Trypsin-EDTA (GIBCO, 25300-062). Cell suspension was washed with 1×DPBS and centrifuged at 1,000 rpm for 5 min at 4° C. Cell pellet was fixed in ice-cold 70% EtOH and then vortexed vigorously to avoid cell aggregates. After fixation, cells were washed with washing buffer [1×PBS (GIBCO, 14190136) supplemented with 5% FBS] and centrifuged at 2,000 rpm for 5 min at 4° C. The pellet was resuspended in propidium iodide solution. Cell suspensions were filtered through a 70 μm cell strainer (Falcon, 08-771-2) and analyzed using a BD LSRII cytometer or a BD FACS Aria II Cell Sorter. Populations were analyzed using FlowJo.

The subject of test [3] is HC11 cells. Kind of test: Visualization of FACS-purified HC11 subpopulations sorted on DNA content (nuclei number). Particulars: sorted on DNA content 4C or >4C. How it is done: as §2
Mammary gland CK8+ epithelial cells or HC11 were sorted based on DNA content using BD FACS Aria II Cell Sorter. After sorting, cells were stained in suspension using Phalloidin-iFluor 488 Reagent (Abcam, ab176753) for 30 min at room temperature in darkness. Cells were spined down onto microscopy slides (Fisher, 12-550-15) using Cytospin 2 (Shandon, 599X52) at 500 rpm for 3 min. Cells were mounted using fluoromount-G (Southern Biotech, 0100-01) and visualized using Zeiss Axio Imager Microscope.

Setting [4] is: Ro-3306 5 μM, differentiated HC11 (DIP3).
Where [5] appears, read: blebbistatin 30 uM, differentiated HC11.

Take `O=C1NC(=NCc2cccs2)S/C1=C\c1ccc2ncccc2c1` [Ro-3306]: in the test on HC11 cells [1] (setting [4]), the “CSN2 expression, RT-qPCR” value was “increases” and the “CSN2 expression, WB” value is listed as “increases”. Moreover, the “endoreplication / polyploidy (FACS DNA content)” value in the test with HC11 cells [2] (Ro-3306 5 μM, DIP3) is “undergo further endoreplication, becoming polyploid”. For the same molecule, the “mitotic arrest / accumulation of tetraploid cells (FACS DNA content)” value in the test with HC11 cells [2] (undifferentiated HC11 at 80% confluence, Ro-3306 5 μM, 6 hours after treatment) is “efficiently induces mitotic arrest, as detected by the accumulation of tetraploid cells”. In the test on HC11 cells [3] (Ro-3306, differentiated HC11 (DIP3)), the “nuclei number of polyploid cells generated (mono-, bi-, multinucleated)” value is “generates mono-, bi- and multinucleated polyploid cells”.
Consider `Cc1ccc2c(c1)C(=O)C1(O)CCN(c3ccccc3)C1=N2` (centres unmarked) [blebbistatin], for which, in the test with HC11 cells [1] (setting [5]), the “expression of Periplin-2 (PLIN2), ICC” value was “increased expression”; the “expression of β-Casein (Csn2), RT-qPCR” value was “increased expression”; the “formation of milk-containing domes” value is “increase in the formation of milk-containing domes”. The “endoreplication / polyploidy (FACS DNA content)” value in the test with HC11 cells [2] (blebbistatin 30 uM, differentiation day 3 (DIP3)) is “undergo further endoreplication, becoming polyploid”. For the same molecule, in the test on HC11 cells [2] (undifferentiated HC11 at 80% confluence, blebbistatin 30 uM, 6 hours post-treatment), the “mitotic arrest / proportion of tetraploid cells (FACS DNA content)” value is “efficiently induces mitotic arrest in HC11 cells, increasing the proportion of tetraploid cells”. The “nuclei number of cells generated (mono-, bi-, multinucleated)” value with HC11 cells [3] (blebbistatin, differentiated HC11 (DIP3)) is “predominantly generates bi- and multinucleated cells”.
